Assay results published in ChEMBL document CHEMBL3507680, “University of Dundee, Gates Library screen for HepG2 cell viability”.

Assay: Human HepG2 cell viability assay in 384 well format
Assay type: toxicity, cell-based
Design: dose 125 nL, time 70.5 hour; cytotoxicity at 70.5 h: concentration not given beside the values
Settings: HepG2 cells, read-out: Inhibition

Compound	cytotoxicity at 70.5 h [%]
CC(C)n1nc2c(cc1=O)CN(Cc1ccc(-n3cccn3)cc1)CC2	24.1
CC(C)C(=O)NCCc1cc2nc(-c3ccncc3)ccn2n1	-6.71
CC(C)C(NC(=O)c1ccco1)C(=O)N1CCC2(CC1)OCCO2 (stereo unspecified)	17.8
COC(=O)c1sc2cccc(F)c2c1CNC(=O)C1CCOC1 (stereo unspecified)	-2.33
CCn1ccnc1CN1CCN(C(C)C(=O)NC2CCCC2)CC1 (stereo unspecified)	-4.1
CC(O)(CNC(=O)c1c(F)cccc1Cl)c1ccco1 (stereo unspecified)	29.8
CSCC(CCO)NC(=O)Nc1ccc(C)cc1C (stereo unspecified)	-14.5
Cc1nccn1-c1ccc(CNC(=O)c2ccc[nH]2)cn1	-6.51
c1ccc(-c2noc(CCCN3CCCC3Cn3cncn3)n2)cc1 (stereo unspecified)	-13.4
O=C(c1cc(Cl)cc(Cl)c1)N1CCN(c2nccs2)CC1	-1.02
O=C1CN(C(=O)c2cc(Cl)ccc2F)c2ccncc2N1	-8.1
CNc1ccc(CC2CCCN(C(=O)c3cccc(C)n3)C2)nn1 (stereo unspecified)	-0.376
COC(=O)NCC(=O)NCC(C)(C)c1cccc(C(F)(F)F)c1	-1.23
c1cnnc(N2CCCC2CNCCc2cccs2)c1 (stereo unspecified)	-7.61
Cc1cccc(N(C)Cc2nc3c(cnn3C)c(=O)[nH]2)c1C	-10
CC1=NN(c2ccc(C(=O)N3CCCC(n4ccnc4)C3)cc2)CC1 (stereo unspecified)	-17.1
OC(CN1CCN(Cc2cc(F)ccc2F)CC1)C1CC1 (stereo unspecified)	0.724
Cc1ccc2c(c1)[C@@H](CC(=O)N(C)C)CCO2	-2.63
CC(C)c1nnc2n1CCN(C(=O)c1ccc3c(c1)CCC3)C2	0.826
CCn1c(C)nnc1SCCNC(=O)c1cccc2ccnn12	14.1
Cc1ccccc1C(=O)N1CC[C@@H]2CN(c3ncccn3)CCO[C@@H]2C1	-10.9
Cc1cc(S(=O)(=O)N(CC(N)=O)CC(C)C)ccc1Br	11.4
Cc1occc1C(=O)N1CCCC2(CCN(c3ccsc3)C2=O)C1 (stereo unspecified)	-6.53
CN(C)S(=O)(=O)N1CC(c2ccnc(Nc3ccccn3)n2)C1	-5.03

Compound	cytotoxicity at 70.5 h [%]
COCC(=O)N1CC[C@H]2[C@H]1CCN2CC(C)C	-12.6
COc1ccc(NC(=O)CCC2CCCN(S(=O)(=O)C3CC3)C2)c(C)c1 (stereo unspecified)	-6.39
CCc1ccc2nc(C)cc(C(=O)NC3CCNC3=O)c2c1 (stereo unspecified)	0.829
O=C(CSc1nncs1)N1CCN(Cc2ccc(Cl)s2)CC1	-9.92
c1cncc(CNC2CCc3ncnn3C2)c1 (stereo unspecified)	34.5
CN(Cc1ccc(F)cc1)Cc1nc(-c2cnccn2)no1	-7.07
CCN(CC)C1CCN(C(=O)c2cc3cc(C)cc(C)c3nc2C)CC1	-2.42
CCOC1COC2(CCN(S(=O)(=O)c3cccc(C)c3)CC2)C1 (stereo unspecified)	-6.02
COC(=O)NCC1CCC2(CCNCC2)O1 (stereo unspecified)	28.3
CN(CC(O)C(F)(F)F)C(=O)Nc1cccc(C(F)F)c1 (stereo unspecified)	-7.43
Cc1nc(C)c(CCNC(=O)NC2CC(=O)N(C(C)(C)C)C2)s1 (stereo unspecified)	-5.16
CCSc1nc(N)c(NC(=O)c2ccc(C)cc2)c(=O)[nH]1	10.5
Cn1cc(-c2nnn3c2COC(CNCc2cccnc2)C3)cn1 (stereo unspecified)	18.5
Cn1cnnc1-c1ccnc(NCc2ccc(Br)cc2)c1	-4.99
COc1ccc(C2=CCN(C(=O)C3CCCN(C(C)=O)C3)CC2)cc1 (stereo unspecified)	-1.69
CN1CCCC(c2ccnc(C(=O)NC3CC3)c2)C1 (stereo unspecified)	-3.68
CN(Cc1ccco1)C(=O)CN1CCOC(Cn2cncn2)C1 (stereo unspecified)	-3.13
CSc1ncccc1C(=O)NC(C)c1cccc(N2CCOC2=O)c1 (stereo unspecified)	-10.4
COc1ccc(F)cc1-n1cnc(CCNC(C)=O)c1	16.3
NC(=O)CN1CCC(OCc2ccc(Cl)c(Cl)c2)CC1	-1.02
CN(CC(=O)NCC1CCCO1)Cc1nc2c(s1)CCCC2 (stereo unspecified)	25.9
NC(=O)CN(CC1CCOC1)C1CC1 (stereo unspecified)	-2.08
CCC(NC(=O)CN(C)Cc1ccc(C)o1)c1ccc(Br)cc1 (stereo unspecified)	-1.78
O=c1ccc2c(n1Cc1cccnc1)CCN(CC1CCOC1)CC2 (stereo unspecified)	-4.17

Compound	cytotoxicity at 70.5 h [%]
CCc1cnc(N2CC3(CCN(Cc4ccsc4)C3)C2)nc1	18.4
CNC(=O)NCC1CCC2(CCN(c3ncccn3)CC2)CO1 (stereo unspecified)	-3.53
c1ccc2oc(N3CCCC4(CCOC4)C3)nc2c1 (stereo unspecified)	-5.71
CCC(c1ccccc1)S(=O)(=O)CCO (stereo unspecified)	-2.1
CC(C)C(NC(=O)c1nc(N2CCOCC2)ncc1Cl)c1cccs1 (stereo unspecified)	-9.67
O=C(c1ccco1)N1C(CO)[C@]2(O)CC[C@H]1CC2 (stereo partly specified)	-3.21
Cc1ccc(C)c2c(O)cc(CN[C@H]3CCCCNC3=O)nc12	-6.91
O=C(CN1C(=O)CCC1=O)NCCc1nc(C2CC2)cc(C(F)(F)F)n1	31.4
COc1ccc(CN2CCC3(CCCN(C)C3=O)C2)c(OC)c1C (stereo unspecified)	-10.1
CC(=O)Nc1nc(C(=O)NCCOc2ccccc2F)cs1	-15.5
Cc1ccc(C(=O)N2CCC3(CC2)COC(COc2cccnc2)C3)o1 (stereo unspecified)	-7.65
N#Cc1ccc(CNC2CCN(CCc3ccncc3)CC2)cc1	-1.86
Cc1ccc(-c2cn3c(n2)CO[C@@H](CNCc2nccs2)C3)cc1	-2.93
CC(C)NC(=O)N1CCc2onc(C(=O)Nc3cccnc3)c2C1	-9.09
CC(C)CNC(=O)c1cn(-c2ccccn2)c(=O)c2ccccc12	-7.97
Cc1cc(C(C)NC(=O)c2ccc(O)nc2)c(C)o1 (stereo unspecified)	2.4
O=C(NCCNc1ncccn1)C1CC(=O)N(Cc2ccccn2)C1 (stereo unspecified)	17.5
CCN(Cc1ccoc1)Cc1nc(COC)no1	-7.42
CNc1cc(C)nc(N2CCN(Cc3ccccc3)CC(O)C2)n1 (stereo unspecified)	-0.369
CCC(CO)N(Cc1cccc(-n2cccn2)c1)Cc1ccccn1 (stereo unspecified)	8.06
CC(=O)N1CCN(C(=O)Cn2ccc3c(Cl)cccc32)CC1	-16.8
COc1cc(Nc2c(C#N)c(=O)n(C)c(=O)n2C)cc(OC)c1	-6.16
COc1ccc(CCN2CCCC(CN(C)Cc3[nH]cnc3C)C2)cc1 (stereo unspecified)	1.62
CCC(C)CNCC1(S(C)(=O)=O)CCOCC1 (stereo unspecified)	-1.98

Compound	cytotoxicity at 70.5 h [%]
N#Cc1csc(CNCCOc2ccc(Cl)cn2)c1	-5.85
OC(CNCCn1cccn1)COc1ccc2ccccc2c1 (stereo unspecified)	-0.315
Oc1cc(CN2CCC(O)(Cn3ccnc3)CC2)nc2c(Cl)cccc12	-9.08
CCN(CC(=O)N(C)C)C(=O)c1ccc(-c2nc(C)cs2)cc1	-4.36
CCCC1(CO)CCCN(C(=O)CN2CCN(CC)CC2)C1 (stereo unspecified)	-24.3
CCCS(=O)(=O)CCSc1cccc(C#N)c1	-11.2
c1ccc(-n2cc(CNCC3CCCN3c3cccnn3)nn2)cc1 (stereo unspecified)	-1.58
O=C(c1ccc(Cl)cc1)N1CCn2c(nn(-c3ccncc3)c2=O)C1	-8.19
O=C(c1cnc2ccc(F)cc2c1NCc1ccco1)N1CCCCC1	-9.21
O=C(c1c(O)cnc2ccccc12)N1CCCSCC1	-1.19
COCCCS(=O)(=O)N1CCN(c2cccc(O)c2)CC1	-6.99
COc1c(CNCc2cccc(CN(C)C)c2)c(C)nn1C	-12.7
CN(Cc1nccn1C)C(CO)c1cccc(Br)c1 (stereo unspecified)	-28.6
CC(=O)N1CCN(c2cc(-n3cnc(C)c3C)nc(C)n2)CC1	-6.25
CC(=O)NCC(=O)N1CC[C@H](OCC2CC2)[C@@H]1Cc1cccnc1	-8.28
CCc1cc(NCC(O)CN2CCCCC2)n2ncnc2n1 (stereo unspecified)	1.39
CN1CCN(S(=O)(=O)c2cccc(C#N)c2)c2ccc(F)cc21	0.333
Cc1nccc(NCc2cncc3c2CCN(CC2CCOC2)C3)n1 (stereo unspecified)	5.73
COC(=O)N1C[C@H]2CC[C@@H]1CN(Cc1ccncc1)C2	-14.2
CC(C)CCn1cc(C(=O)NC2CCS(=O)(=O)C2)c2ccccc2c1=O (stereo unspecified)	-12.4
COc1nccc(N2CC[C@H](N3CCOCC3)[C@H](CCCO)C2)c1C#N	-7.48
CCc1nccn1CCC(=O)N1CCCC1c1cncc(NC)n1 (stereo unspecified)	5.43
CCCc1cc(CNC(=O)C2CCOc3ccccc3C2)on1 (stereo unspecified)	2.98
CN(C)c1cccc(C2CCCN2Cc2nnnn2C2CC2)c1 (stereo unspecified)	-1.65

Compound	cytotoxicity at 70.5 h [%]
NC(=O)CCn1nnc(-c2cc3ccccc3o2)n1	-13.1
Cc1n[nH]c(C)c1NC(=O)CN1CCOC(Cn2cccn2)C1 (stereo unspecified)	0.504
CC1CCN(S(=O)(=O)c2cccn(CC(=O)N3CCOCC3)c2=O)CC1	-16
CC(CS(C)(=O)=O)N(C)C(=O)NCCCc1ccc(Cl)cc1 (stereo unspecified)	-3.65
O=C(c1ccccc1)N1C[C@@H]2CC[C@H](C1)N(Cc1cc(F)ccc1Cl)C2	27
CC(C)NC(=O)C1CN(C(=O)Nc2ccccc2)CC12CCOCC2 (stereo unspecified)	22
CCc1ncncc1C(=O)N1CCCN(Cc2ccc(C#N)cc2)CC1	-10.9
Cn1cc(C2CC(=O)NC23CCN(c2ncc(F)cn2)CC3)cn1 (stereo unspecified)	25.2
C[C@@H]1CN2C[C@H](O)CC2CN1Cc1ccncc1 (stereo partly specified)	-3.16
COc1ncccc1NC(=O)NCC1CC1	-3.58
COc1ccc(OC)c(C(O)CN2CC(n3cccn3)C2)c1 (stereo unspecified)	-9.37
Cc1cccc(NC2CCN(C(=O)Nc3ccncc3)CC2)n1	24.2
Cc1nc2c(c(C)c1CC(=O)NCc1ccco1)c(=O)[nH]n2C	-3.09
CC(C)CNC(=O)N1C[C@H]2CC[C@@]3(N=C(c4ccccc4)NC3=O)[C@H]2C1	-0.00686
Cc1noc(C)c1CNc1cc(N2CCCC2CO)ncn1 (stereo unspecified)	-5.89
CC(C)CC(=O)N1CCCn2cnc(CNS(C)(=O)=O)c2C1	2.43
CC(C)C(=O)NCC(=O)N(C)C1CCCN(CCc2ccccc2)C1 (stereo unspecified)	-5.89
CS(=O)(=O)c1cc(Cl)cnc1C1CCCN(C(=O)C2CCOCC2)C1 (stereo unspecified)	-7.95
CN(C)c1ccnc(C2CCCN2)n1 (stereo unspecified)	-3.83
COc1cccc(-c2nc(CC(=O)NC3(C)CCS(=O)(=O)C3)cs2)c1 (stereo unspecified)	-8.05
